The source of these data is patent US20210283091A1, “DECREASING IMMUNE ACTIVITY THROUGH MODULATION OF POSTCELLULAR SIGNALING FACTORS” (FLAGSHIP PIONEERING INNOVATIONS V, INC., priority 2018, published 2021).

Assay [1] relates to NFKB. Description: NFKB reporter activity in THP1-Dual monocytes co-cultured with treated A20 cells. The class given is cell-based, human. The note with it: A20 cells treated 24 hours, then co-culture with THP1-Dual cells 24 hours. The protocol:
A20 B-cell leukemia cells were treated with either control (DMSO) or various doses of RSL3, for 24 hours prior to co-culture with THP1-Dual cells for an additional 24 hours. RSL3 was purchased from Selleckchem (Houston, Tex.) and dissolved in DMSO. Subsequently, the THP1 supernatants were assessed for NFKB or IRF reporter activity.
A20 cells were acquired from ATCC and THP1-Dual cells acquired from InvivoGen (San Diego, Calif.). Both cell types were cultured in 96-well plates for the duration of the assay. 50,000 A20 cells were plated 24 hours prior to dosing with RSL3, with a final DMSO concentration of 0.5%. 24 hours post-treatment, THP1-Dual cells (25,000 cells/well) were added to the A20 cells. 24 hours later, 30 μl of supernatant was mixed with either 200 μl QuantiBlue (InvivoGen, San Diego, Calif.) or 50 μl QuantiLuc and absorbance or luminescence was recorded on a Molecular Devices plate reader.
A20 lymphoma cells were treated with various doses (e.g. 0.002, 0.005, 0.014, 0.041, 0.123, 0.370, 1.111, 3.333 and 10 μM) of a GPX4 inhibitor (RSL3, ML162 or ML210) in the presence or absence of 1 μM Ferrostatin-1 for 24 hours. ML162 was purchased from Cayman Chemical Company Inc and resuspended in DMSO. ML210 was purchased from Sigma-Aldrich and resuspended in DMSO. A20 lymphoma cells were also treated with DMSO as a negative control. After treatment with DMSO or a GPX4 inhibitor for 24 hours, the A20 lymphoma cells were co-cultured with THP1-Dual cells for an additional 24 hours. Subsequently, the THP1 supernatant was assessed for NFKB reporter activity. A20 cells were acquired from ATCC and THP1-Dual cells were acquired from InvivoGen (San Diego, Calif.). Both cell types were cultured in 96-well plates for the duration of the assay.

Assay [2] has as its system NFKB. The experiment in a line: NFKB reporter activity in THP1-Dual monocytes co-cultured with treated Caki-1 cells. The class given is cell-based, human. The note with it: Caki-1 cells treated 24 hours, then co-culture with THP1-Dual cells 24 hours. As for the experimental part:
Caki-1 renal cell carcinoma cells were treated with either control (DMSO) or various doses of Erastin, for 24 hours prior to co-culture with THP1-Dual cells for an additional 24 hours. Erastin was purchased from Selleckchem (Houston, Tex.) and dissolved in DMSO. Subsequently, the THP1 supernatants were assessed for NFKB or IRF reporter activity. Caki-1 cells were acquired from ATCC and THP1-Dual cells acquired from InvivoGen (San Diego, Calif.). Both cell types were cultured in 96-well plates for the duration of the assay. 7.500 Caki-1 cells were plated 24 hours prior to dosing with Erastin, with a final DMSO concentration of 0.5%. 24 hours post-treatment, THP1-Dual cells (25,000 cells/well) were added to the Caki-1 cells. 24 hours later, 30 μl of supernatant was mixed with either 200 μl QuantiBlue (InvivoGen) or 50 μl QuantiLuc and absorbance or luminescence was recorded on a Molecular Devices plate reader. Caki-1 renal cell carcinoma cells were treated with either control (DMSO) or various doses of RSL3, for 24 hours prior to co-culture with THP1-Dual cells for an additional 24 hours. RSL3 was purchased from Selleckchem and dissolved in DMSO. Subsequently, the THP1 supernatants were assessed for NFKB or IRF reporter activity. Caki-1 cells were acquired from ATCC and THP1-Dual cells acquired from InvivoGen (San Diego, Calif.). Both cell types were cultured in 96-well plates for the duration of the assay. 7.500 Caki-1 cells were plated 24 hours prior to dosing with […], with a final DMSO concentration of 0.5%. 24 hours post-treatment, THP1-Dual cells (25,000 cells/well) were added to the Caki-1 cells. 24 hours later, 30 μl of supernatant was mixed with either 200 μl QuantiBlue (InvivoGen, San Diego, Calif.) or 50 μl QuantiFuc and absorbance or luminescence was recorded on a Molecular Devices plate reader. […] Subsequently, the THP1 supernatant was assessed for NFKB reporter activity. […]

Assay [3] deals with Caki-1 renal cell carcinoma cells. Description: Viability of Caki-1 renal cell carcinoma cells treated with ferroptosis inducer, with or without Ferrostatin-1. The note with it: various doses, 24 hours treatment. The class given is cell-based.
The subject of assay [4] is IRF. Description: IRF reporter activity in THP1-Dual monocytes co-cultured with treated A20 cells. The format is cell-based, human. The note with it: A20 cells treated 24 hours, then co-culture with THP1-Dual cells 24 hours. As for the experimental part:
(§1) A20 B-cell leukemia cells were treated with either control (DMSO) or various doses of RSL3, for 24 hours prior to co-culture with THP1-Dual cells for an additional 24 hours. RSL3 was purchased from Selleckchem (Houston, Tex.) and dissolved in DMSO. Subsequently, the THP1 supernatants were assessed for NFKB or IRF reporter activity. A20 cells were acquired from ATCC and THP1-Dual cells acquired from InvivoGen (San Diego, Calif.). Both cell types were cultured in 96-well plates for the duration of the assay. 50,000 A20 cells were plated 24 hours prior to dosing with RSL3, with a final DMSO concentration of 0.5%. 24 hours post-treatment, THP1-Dual cells (25,000 cells/well) were added to the A20 cells. 24 hours later, 30 μl of supernatant was mixed with either 200 μl QuantiBlue (InvivoGen, San Diego, Calif.) or 50 μl QuantiLuc and absorbance or luminescence was recorded on a Molecular Devices plate reader.

The subject of assay [5] is Jurkat T cell leukemia cells. Description: Viability of Jurkat T cell leukemia cells treated with RSL3. The class given is cell-based. The note with it: various doses, 24 hours treatment.
For assay [6], the system named is A20 B-cell leukemia cells. Description: Viability of A20 cells treated with GPX4 inhibitor, with or without Ferrostatin-1. The note with it: various doses, 24 hours treatment. The format is cell-based.
Assay [7] deals with NFKB. Description: NFKB reporter activity in THP1-Dual monocytes co-cultured with treated Jurkat cells. The class given is cell-based, human. The note with it: Jurkat cells treated 24 hours, then co-culture with THP1-Dual cells 24 hours. As for the experimental part: as §1, with “Jurkat T cell” for “A20 B-cell”, “Jurkat” for “A20”, “100,000 Jurkat” for “50,000 A20”

Entries after “also recorded” stand apart in the source; their conditions may differ.

Turning to `COC(=O)c1ccc([C@H]2c3[nH]c4ccccc4c3C[C@H](C(=O)OC)N2C(=O)CCl)cc1` [RSL3], the “NFKB signaling in THP1 monocytes” value in assay [1] is listed as “elicited NFKB; also recorded: increased NFKB activity in THP1 cells in a dose dependent manner”; in assay [2], “elicited NFKB signaling; also recorded: increased NFKB activity in THP1 cells in a dose dependent manner”; in assay [7], “elicited NFKB signaling”. In assay [3], the “viability of Caki-1 cells” value is on record as “negatively affected the viability; also recorded: decreased viability of the cells in a dose dependent manner”. In addition, in assay [4], the “IRF signaling in THP1 monocytes” value was “elicited”. The “viability of Jurkat T cell leukemia cells” value in assay [5] is listed as “negatively affected the viability”. Also, the “viability of A20 cells” value in assay [6] is “negatively affected the viability; also recorded: decreased viability of the cells in a dose dependent manner”.
